Reference: paper PMC7076352 (Pharmaceutics, 2020)

How the values were obtained:
[1] = molecular target: T1, CYP2E1 (Rattus norvegicus, UniProt P05182); conditions: IC50 CYP2E1, single components; RLM 0.2 mg/mL, 15 min, triplicate, mean ± SD
Experimental: (§6) For the cocktail assay, the activity is expressed as the percentage of activity remaining comparing with that of a control sample containing no inhibitor. […] All the data were described as mean ± standard deviation (SD). Normality assumptions were tested by the Kolmogorov–Smirnov statistic setting p = 0.10 as the limit for rejection of the null hypothesis of normality. If the distribution of the data was normal with equal variances, a two-sided test was performed at the 5% level of significance. The Welch’s correction was then applied when the underlying variances were not equal. When the assumption of normality must be rejected, the Mann-Whitney test, a non-parametric equivalent of the independent-measures t-test, was used.

[2] = molecular target: T2, CYP1A2 (Rattus norvegicus, UniProt P04799); test: In vitro cocktail CYP450 activity assay in rat liver microsomes, CYP1A2 (phenacetin probe)
T2 sequence (P04799 1-513): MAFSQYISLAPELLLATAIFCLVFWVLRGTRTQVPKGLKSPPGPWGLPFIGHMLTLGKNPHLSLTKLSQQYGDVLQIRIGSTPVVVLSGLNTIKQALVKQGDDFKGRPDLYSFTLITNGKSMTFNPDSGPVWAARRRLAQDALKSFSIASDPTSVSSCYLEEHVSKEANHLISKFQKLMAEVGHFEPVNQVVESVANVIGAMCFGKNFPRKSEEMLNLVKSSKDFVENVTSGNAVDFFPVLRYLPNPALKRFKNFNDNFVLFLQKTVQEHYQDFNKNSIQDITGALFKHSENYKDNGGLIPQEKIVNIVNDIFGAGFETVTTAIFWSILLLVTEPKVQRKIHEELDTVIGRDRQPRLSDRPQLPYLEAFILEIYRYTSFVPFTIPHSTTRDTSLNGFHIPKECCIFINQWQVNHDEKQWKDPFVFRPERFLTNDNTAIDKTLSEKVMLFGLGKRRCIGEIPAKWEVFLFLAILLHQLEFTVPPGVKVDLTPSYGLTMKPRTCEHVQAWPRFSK
Experimental: (§1) (OHBUP-[D6]) and 5 nM 4′-hydroxydiclofenac-[^13C6] (OHDIC-[^13C6]) as internal standards (ISs). […]
(§2) standard addition experiments. Each group included four concentration levels. For the PK […]
(§3) The probe compounds, viz. […]
(§4) chosen after incubating all the recruited substrates. In order to assure the linear relationship […]
(§5) The incubation system was also optimized in terms of substrate concentrations. The substrates concentrations of […]

[3] = in vivo; design: species or system Sprague-Dawley (SD) rats; conditions: Sprague-Dawley, plasma, rat
Experimental: At each time, 0.5 mL of blood was collected in the heparin sodium tubes. Plasma was separated by centrifugation at 4000 rpm for 10 min and stored below −80 °C until bioanalysis. Oasis PRiME HLB SPE cartridges (1 cc/30 mg, Waters, Milford, MA, USA) were used to process the plasma samples (Supplementary Materials).
The generic layout of instrumentation setup of the LVDI-UHPLC-MS/MS was conducted on a Shimadzu UHPLC system consisting of two LC-20ADXR pumps, a DGU-20A3R degasser, and a CBM-20A controller (Kyoto, Japan) with a SCIEX 4500 QTRAP mass spectrometer mounted with an electron spray ionization (ESI) interface as well as an electronic 6-port/2-channel valve (Foster City, CA, USA). Analyst software package (version 1.6.2, SCIEX) was implemented to control and synchronize the entire system, and also for data acquisition and processing. A single analytical run was fragmented into two phases, namely, loading and elution phases, by switching the electronic valve (Figure 2). At the loading phase, the valve was maintained at A-channel. The specimen aliquot of large volume delivered from the auto-sampler was captured onto a guard column. Meanwhile, the pumps were responsible for delivering the mobile phase at a high flow rate, aiming to dilute the sample solvent, thus facilitating the candidate constituents to concentrate on the pre-guard column. Then, the valve was automatically switched to the B-channel to trigger the elution phase. The trapped components were flushed from the pre-guard column into an analytical column, and underwent multiple reaction monitoring (MRM) analysis on the optimized LC gradients. The detailed information of LVDI-UHPLC-MS/MS analysis for pharmacokinetic and cocktail studies is shown in the Supplementary Materials section.

[4] = tested on: CYP2C19; test: In vitro cocktail CYP450 activity assay in rat liver microsomes, CYP2C19 (omeprazole probe)
Experimental: as §1, §2, §3, §4, §5

[5] = tested on: CYP2C9; test: In vitro cocktail CYP450 activity assay in rat liver microsomes, CYP2C9 (tolbutamide probe); conditions: Sprague-Dawley, rat, pooled rat liver microsomes, pH 7.4, probe tolbutamide (18 µM, in seven-probe cocktail), IC50 CYP2C9, single components; RLM 0.2 mg/mL, 15 min, triplicate, mean ± SD
Experimental: as §1, §2, §3, §4, §5

[6] = tested on: CYP2B6; test: In vitro cocktail CYP450 activity assay in rat liver microsomes, CYP2B6 (bupropion probe)
Experimental: as §1, §2, §3, §4, §5

[7] = tested on: CYP3A4; test: in vitro
Experimental: as §1, §2, §3, §4, §5

[8] = tested on: CYP2D6; test: in vitro; conditions: Sprague-Dawley, rat, microsomes, pH 7.4, IC50 CYP2D6
Experimental: as §1, §2, §3, §4, §5

[9] = molecular target: T1, CYP2E1; conditions: Sprague-Dawley, rat, 15 min, pH 7.4
Experimental: as §6

[10] = at the Cmax level in rat plasma, calculated from the dose–response curve

T1 sequence (P05182 whole entry): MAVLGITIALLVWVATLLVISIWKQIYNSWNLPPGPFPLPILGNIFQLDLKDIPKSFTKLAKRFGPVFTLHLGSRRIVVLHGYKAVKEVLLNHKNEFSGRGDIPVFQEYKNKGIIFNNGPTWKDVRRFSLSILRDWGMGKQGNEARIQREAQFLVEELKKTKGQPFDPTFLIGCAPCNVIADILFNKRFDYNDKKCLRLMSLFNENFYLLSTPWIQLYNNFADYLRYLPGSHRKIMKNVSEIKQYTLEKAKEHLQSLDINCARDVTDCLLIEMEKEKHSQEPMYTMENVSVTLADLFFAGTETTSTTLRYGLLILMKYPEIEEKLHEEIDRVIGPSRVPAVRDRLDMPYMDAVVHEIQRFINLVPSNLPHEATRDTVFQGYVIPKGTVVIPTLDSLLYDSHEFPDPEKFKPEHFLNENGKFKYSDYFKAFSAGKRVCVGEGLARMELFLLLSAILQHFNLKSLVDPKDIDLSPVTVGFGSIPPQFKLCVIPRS

CC(C)=CCC[C@](C)(O[C@@H]1O[C@H](CO)[C@@H](O)[C@H](O)[C@H]1O)[C@H]1CC[C@]2(C)[C@@H]1[C@H](O)C[C@@H]1[C@@]3(C)CC[C@H](O)C(C)(C)[C@@H]3[C@@H](O[C@@H]3O[C@H](CO)[C@@H](O)[C@H](O)[C@H]3O[C@@H]3O[C@@H](C)[C@H](O)[C@@H](O)[C@H]3O)C[C@]12C [GRe, ginsenoside Re]
IC50 [1]: 25.6 ± 9.03 µM | IC50 ([2]; IC50 CYP1A2, single components, RLM 0.2 mg/mL, 15 min, triplicate, mean ± SD): 94.4 ± 4.52 µM | Response (% control) CYP1A2 [2, 10]: 99.99 % control | concentration at […] ([3]; 0.083 h after oral CNP): 0.24 ± 0.02 ng/mL | concentration at 0.25 h ([3]; 0.25 h after oral CNP): 0.25 ± 0.01 ng/mL | concentration at 0.5 h ([3]; 0.5 h after oral CNP): 0.33 ± 0.11 ng/mL | concentration at 1 h ([3]; 1 h after oral CNP): 0.24 ± 0.04 ng/mL | concentration at 1.5 h ([3]; 1.5 h after oral CNP): 0.24 ± 0.03 ng/mL | concentration at 2 h ([3]; 2 h after oral CNP): 0.23 ± 0.02 ng/mL | concentration at 3 h ([3]; 3 h after oral CNP): 0.28 ± 0.1 ng/mL | concentration at 4 h ([3]; 4 h after oral CNP): 0.28 ± 0.07 ng/mL | concentration at 6 h ([3]; 6 h after oral CNP): 0.23 ± 0.03 ng/mL | concentration at 8 h ([3]; 8 h after oral CNP): 0.14 ± 0.03 ng/mL | half-life ([3]; po): 5.99 ± 3.86 h | AUC(0-inf) ([3]; po, 60 mg/kg): 2.9 ± 0.6 ng·h/mL | AUC(0-t) ([3]; po, 60 mg/kg): 1.82 ± 0.19 ng·h/mL | Cmax ([3]; po, 60 mg/kg): 0.29 ± 0.04 ng/mL | Tmax ([3]; po, 60 mg/kg): 2.6 ± 0.89 h | half-life ([3]; po, 60 mg/kg): 5.25 ± 2.27 h | concentration at 0.25 h ([3]; po, 60 mg·kg^−1): 0.26 ± 0.02 ng/mL | concentration at 0.5 h ([3]; po, 60 mg·kg^−1): 0.24 ± 0.02 ng/mL | concentration at 1 h ([3]; po, 60 mg·kg^−1): 0.25 ± 0.02 ng/mL | concentration at 1.5 h ([3]; po, 60 mg·kg^−1): 0.22 ± 0.02 ng/mL | concentration at 2 h ([3]; po, 60 mg·kg^−1): 0.21 ± 0.01 ng/mL | concentration at 3 h ([3]; po, 60 mg·kg^−1): 0.27 ± 0.04 ng/mL | concentration at 4 h ([3]; po, 60 mg·kg^−1): 0.25 ± 0.05 ng/mL | concentration at 6 h ([3]; po, 60 mg·kg^−1): 0.24 ± 0.06 ng/mL | concentration at 8 h ([3]; po, 60 mg·kg^−1): 0.13 ± 0.01 ng/mL | IC50 at 15 min ([4]; Sprague-Dawley, rat, pooled rat liver microsomes, pH 7.4, probe omeprazole (1.07 µM, in seven-probe cocktail), IC50 CYP2C19, single components, RLM 0.2 mg/mL, 15 min, triplicate, mean ± SD): 50.5 ± 15.4 µM | Response (% control) CYP2C19 [4, 10]: 98.36 % control | IC50 at 15 min [5]: > 200 µM | IC50 at 15 min ([6]; Sprague-Dawley, rat, pooled rat liver microsomes, pH 7.4, probe bupropion (90 µM, in seven-probe cocktail), IC50 CYP2B6, single components, RLM 0.2 mg/mL, 15 min, triplicate, mean ± SD): 39.4 ± 4.81 µM | Response (% control) CYP2B6 [6, 10]: 99.64 % control | IC50 ([7]; Sprague-Dawley, rat, microsomes, pH 7.4, IC50 CYP3A4, single components, RLM 0.2 mg/mL, 15 min, triplicate, mean ± SD): 75.1 ± 7.24 µM | Response (% control) CYP3A4 [7, 10]: 99.99 % control | IC50 at 15 min [8]: > 200 µM | Response (% control) CYP2E1 [9]: 97.35 % control
